# Where two headings read alike, the source gives them in different places.
# Key:
# Type in all cases: biochemical
# [1] = molecular target: T1, beta-lactamase class D OXA-48 (Klebsiella pneumoniae, UniProt Q6XEC0); conditions: for Accuracy <> (average) / [Meropenem] <> (average): average of 5 replicates
# Source text: The specificity (or selectivity) of the method according to an embodiment of the invention is defined as the ability of the method to measure the concentration of a carbapenem antibiotic (such as meropenem) in presence of an excess of another beta-lactam antibiotic (second beta-lactam) currently used in ICUs (see Table 4).
# To determine the specificity of the method illustrating the invention for carbapenem antibiotics, in particular meropenem, versus other beta-lactam antibiotics, stock-solutions of second beta-lactam antibiotics were prepared in water.
# An excess of a second beta-lactam concentration of up to 10 times the concentration of meropenem was used.
# [2] = molecular target: P99 beta-lactamase (class C) (Enterobacter cloacae, UniProt P05364); conditions: nitrocefin reporter
# [3] = molecular target: T1, beta-lactamase class D OXA-48; conditions: calibration curves FIG. 2, FIG. 3
# [4] = Meropenem 1.2 mg/L, second β-lactam 10.0 mg/L (8.4 times excess)
# [5] = Meropenem 20.0 mg/L, second β-lactam 200.0 mg/L (10 times excess)
# T1 sequence (Q6XEC0 23-265 limits assumed): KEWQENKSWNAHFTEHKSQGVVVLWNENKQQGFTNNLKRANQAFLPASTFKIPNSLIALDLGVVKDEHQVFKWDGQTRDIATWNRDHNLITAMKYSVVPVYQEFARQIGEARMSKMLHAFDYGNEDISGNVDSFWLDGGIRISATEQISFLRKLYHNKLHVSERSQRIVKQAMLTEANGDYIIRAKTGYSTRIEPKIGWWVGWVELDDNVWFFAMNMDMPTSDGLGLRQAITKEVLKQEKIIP
# Sequence of P99 beta-lactamase (class C) (P05364 21-381): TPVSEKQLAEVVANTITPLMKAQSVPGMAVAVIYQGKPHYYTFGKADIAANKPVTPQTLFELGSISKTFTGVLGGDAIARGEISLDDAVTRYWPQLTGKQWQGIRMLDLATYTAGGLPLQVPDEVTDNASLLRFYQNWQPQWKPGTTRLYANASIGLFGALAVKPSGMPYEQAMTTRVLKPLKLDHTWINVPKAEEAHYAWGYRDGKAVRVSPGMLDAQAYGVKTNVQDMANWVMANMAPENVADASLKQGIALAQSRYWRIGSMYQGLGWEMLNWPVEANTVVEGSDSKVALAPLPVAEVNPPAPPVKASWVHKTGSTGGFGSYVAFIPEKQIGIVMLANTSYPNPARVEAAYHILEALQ
Compound,"Accuracy <> (average) [1, 4] [%]","[Meropenem] <> (average) [1, 4] [mg/L]","Accuracy Replicate 1 [1, 4] [%]","[Meropenem] Replicate 1 [1, 4] [mg/L]","Accuracy Replicate 2 [1, 4] [%]","[Meropenem] Replicate 2 [1, 4] [mg/L]","Accuracy Replicate 3 [1, 4] [%]","[Meropenem] Replicate 3 [1, 4] [mg/L]","Accuracy Replicate 4 [1, 4] [%]","[Meropenem] Replicate 4 [1, 4] [mg/L]","Accuracy Replicate 5 [1, 4] [%]","[Meropenem] Replicate 5 [1, 4] [mg/L]","Accuracy <> (average) [1, 5] [%]","[Meropenem] <> (average) [1, 5] [mg/L]","Accuracy Replicate 1 [1, 5] [%]","[Meropenem] Replicate 1 [1, 5] [mg/L]","Accuracy Replicate 2 [1, 5] [%]","[Meropenem] Replicate 2 [1, 5] [mg/L]","Accuracy Replicate 3 [1, 5] [%]","[Meropenem] Replicate 3 [1, 5] [mg/L]",also measured
CC(C)(O/N=C(\C(=O)N[C@@H]1C(=O)N2C(C(=O)[O-])=C(C[n+]3ccccc3)CS[C@H]12)c1csc(N)n1)C(=O)O [Ceftazidime],111,1.3,108,1.3,105,1.2,108,1.3,112,1.3,118,1.4,100,20.1,102,20.6,97,19.6,100,20.1,"Accuracy Replicate 4 [1, 5]: 100%; [Meropenem] Replicate 4 [1, 5]: 20.2 mg/L; Accuracy Replicate 5 [1, 5]: 99%; [Meropenem] Replicate 5 [1, 5]: 20.0 mg/L; hydrolysis rate symbol, (Vmax/V0)-1 [2]: + (0.1-1)"
CO/N=C(\C(=O)N[C@@H]1C(=O)N2C(C(=O)O)=C(CSc3nc(=O)c(O)nn3C)CS[C@H]12)c1csc(N)n1 [Ceftria ®],112,1.3,105,1.2,111,1.3,112,1.3,116,1.3,113,1.3,95,21.1,100,22.3,96,21.4,96,21.4,"Accuracy Replicate 4 [1, 5]: 90%; [Meropenem] Replicate 4 [1, 5]: 20.0 mg/L; Accuracy Replicate 5 [1, 5]: 91%; [Meropenem] Replicate 5 [1, 5]: 20.4 mg/L; hydrolysis rate symbol, (Vmax/V0)-1 [2]: +++ (10-100)"
C[C@@H](O)[C@H]1C(=O)N2C(C(=O)O)=C(S[C@@H]3CN[C@H](CNS(N)(=O)=O)C3)[C@H](C)[C@H]12 [doripenem],,,,,,,,,,,,,,,,,,,,,determining the concentration using OXA-48 [3]: possible
C[C@@H](O)[C@H]1C(=O)N2C(C(=O)O)=C(S[C@@H]3CN[C@H](C(=O)Nc4cccc(C(=O)O)c4)C3)[C@H](C)[C@H]12 [ertapenem],,,,,,,,,,,,,,,,,,,,,determining the concentration using OXA-48 [3]: possible
